Reference: patent publication US20260167692A1, “POLYPEPTIDES AND RELATED SUBSTANCES AGAINST HAIR LOSS AND DERMATITIS, AND USES THEREOF” (SHENZHEN INSTITUTES OF ADVANCED TECHNOLOGY, priority 2023, published 2026)
Like-named read-outs stand apart in the source and are kept apart here. Where a SMILES comes first, the peptide text is derived from it. Where no end group is shown, it is not given here.

Tests used:
[1] = system: human primary dermal papilla cells; settings: 10 nM DHT, 24 hours
Procedure: A fibroblast medium was used as a medium.
24 hours after serum-starved cells were removed, human primary dermal papilla cells were treated with a high level of androgen by adding 10 nM DHT to a culture medium. Expression levels of cellular molecular markers (including 5α-dehydrogenase, AR, CD200, IL-6, BCL2, BAX, and FABP3) were detected after 24 hours. Homologous polypeptides from different species (the polypeptides from Example 7) were concurrently added for co-culture, and the expression levels of the cellular molecular markers were detected after 24 hours.

male C57BL/6 mice = assay: Androgenetic (seborrheic) hair loss mouse model (DHT); assay type: in vivo; settings: 28 days
Procedure: 7-week-old male C57BL/6 mice were treated with application of DHT (a modeling and experimental cycle of 28 days).
Hair at a telogen phase on 2×2 cm areas of dorsa was removed, and the areas were depilated using a hair removal cream. A DHT solution (0.2%, w/v) was prepared in an ethanol solution (50%, v/v). Mice received topical application of the DHT solution (0.1 mL/cm^2) to the depilated areas, once a day, for 28 consecutive days. Mice in the other group received the polypeptide via oral gavage at a concentration of 0.5 mg/kg/day while applied with the DHT daily.

[2] = system: brain, gonad and adrenal gland tissues of male mice; assay: In vivo targeting of Cy5-labeled polypeptide in male mice (small animal imaging); design: species or system mouse; settings: adult male mice, tail vein injection 100 μL of Cy5-labeled polypeptide, imaging after 24 hours, vs control group
Procedure: (§1) Adult male mice were intravenously injected via tail veins with the following: the Cy5-labeled polypeptide prepared in Example 2, a control polypeptide (a scrambled, irrelevant polypeptide), and a PBS. Each mouse received an injection volume of 100 μL. After 24 hours, detection was performed using a small animal imaging instrument.

[3] = system: brains, ovaries, uteruses and adrenal glands of female mice; assay: In vivo targeting of polypeptide-ICG/Cy5 probe in female mice (small animal imaging); design: species or system mouse; settings: adult female mice, tail vein injection 100 μL of ICG- or Cy5-labeled polypeptide, imaging after 24 hours, vs control group
Procedure: as §1, with “female” for “male”, “polypeptide-ICG probe solution” for “Cy5-labeled polypeptide”, “2/Cy5-labeled polypeptide, an ICG solution (2 mM)/control” for “2, a control”, “phosphate buffered saline (PBS).” for “PBS.”

GPR158 receptor = target: T1, GPR158 receptor (Homo sapiens, UniProt Q5T848); assay: Binding of Cy5-labeled Ocn49/Ocn19 to HeLa cells highly expressing GPR158; assay type: cell-based; settings: Cy5-labeled polypeptide incubated with GPR158-HeLa cells at 4° C., washed with PBS, FIG. 7
T1 construct: expressed in transfected cells; host or cells: HeLa cell line highly expressing GPR158 (GPR158-HeLa)
T1 sequence (Q5T848 24-1215): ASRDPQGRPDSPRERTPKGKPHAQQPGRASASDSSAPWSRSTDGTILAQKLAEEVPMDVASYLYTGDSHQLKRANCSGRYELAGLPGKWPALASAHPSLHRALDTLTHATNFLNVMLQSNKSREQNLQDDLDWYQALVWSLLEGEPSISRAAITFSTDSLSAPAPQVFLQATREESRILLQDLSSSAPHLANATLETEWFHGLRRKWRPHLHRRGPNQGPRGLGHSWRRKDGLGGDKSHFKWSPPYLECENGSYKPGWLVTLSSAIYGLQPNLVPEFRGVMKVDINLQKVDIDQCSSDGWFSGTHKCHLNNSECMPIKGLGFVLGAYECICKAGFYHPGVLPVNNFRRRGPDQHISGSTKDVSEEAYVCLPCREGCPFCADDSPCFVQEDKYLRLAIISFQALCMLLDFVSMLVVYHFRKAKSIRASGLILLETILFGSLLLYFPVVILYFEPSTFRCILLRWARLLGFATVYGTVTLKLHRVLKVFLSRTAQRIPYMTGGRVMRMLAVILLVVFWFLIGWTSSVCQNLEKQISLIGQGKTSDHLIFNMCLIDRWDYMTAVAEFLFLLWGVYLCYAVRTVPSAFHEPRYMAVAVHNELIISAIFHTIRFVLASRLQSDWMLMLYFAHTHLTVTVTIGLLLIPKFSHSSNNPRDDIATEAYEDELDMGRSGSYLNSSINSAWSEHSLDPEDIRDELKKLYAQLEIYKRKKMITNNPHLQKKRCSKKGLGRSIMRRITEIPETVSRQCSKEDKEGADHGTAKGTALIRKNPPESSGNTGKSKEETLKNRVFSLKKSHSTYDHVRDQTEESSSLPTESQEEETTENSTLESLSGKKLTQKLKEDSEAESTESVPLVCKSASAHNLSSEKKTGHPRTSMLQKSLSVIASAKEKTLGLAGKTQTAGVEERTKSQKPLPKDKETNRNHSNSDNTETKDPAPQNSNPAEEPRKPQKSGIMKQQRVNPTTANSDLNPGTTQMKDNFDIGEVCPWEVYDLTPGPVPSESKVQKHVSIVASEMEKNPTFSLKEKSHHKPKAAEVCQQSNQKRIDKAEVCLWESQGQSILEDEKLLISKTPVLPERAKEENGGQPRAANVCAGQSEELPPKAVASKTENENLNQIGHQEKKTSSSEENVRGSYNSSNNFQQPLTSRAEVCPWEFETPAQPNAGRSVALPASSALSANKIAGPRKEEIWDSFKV
Procedure: The polypeptide prepared in Example 1 was employed in this example, and a binding condition was observed via in vitro culture of the polypeptide with a Hela cell line highly expressing a GPR158 receptor.
(§2) A specific method involved that Cy5-labeled full-length human osteocalcin Ocn49, truncated human osteocalcin Ocn19 (SEQ ID NO.1), and HeLa cells highly expressing GPR158 were incubated at 4° C., and cells were subsequently washed with PBS. Polypeptides incapable of binding to the cells were considered as non-specific ligands, while polypeptides capable of binding to the cells were considered as specifically binding ligands. An interaction between the polypeptides and the receptor was verified accordingly.

[4] = system: human primary dermal papilla cells; assay: Cortisol-induced psychological stress hair loss cell model; assay type: cell-based; settings: 1 μM cortisol, 24 hours
Procedure: A fibroblast medium was used as a medium. […] Expression levels of cellular molecular markers (including 5α-dehydrogenase, GR, AR, CD200, IL-6, BCL2, and BAX) were detected after 24 hours.

[5] = target: T2, human GPR158 receptor (on HeLa cells highly expressing a GPR158 receptor) (human, UniProt Q5T848 24-1215); assay: Cy5-labelled polypeptide incubated at 4 C with HeLa cells highly expressing GPR158, washed with PBS, fluorescence imaging
T2 construct: whole, on cells; also called GPR158-HeLa cells; human GPR158 receptor cells
T2 sequence (looked up): T1 sequence (Q5T848 24-1215)
Procedure: as §2

[6] = topical DHT 0.2% w/v, 0.1 mL/cm^2 once a day

## C[C@]12CCC(=O)C[C@@H]1CC[C@@H]1[C@@H]2CC[C@]2(C)[C@@H](O)CC[C@@H]12 [DHT, dihydrotestosterone]
[1]
  apoptosis of hair follicle cells (Caspase-3, BCL2, BAX): increased
  expression level of hair follicle regression marker MMP-9: increased
  expression level of hair follicle stem cell marker CD200: decreased
  expression levels of androgen receptor (AR), 5α-reductase, androgen synthesis-related enzymes (3βHSD and 17βHSD3): significantly increased
  expression levels of fatty acid-binding protein FABP3 and adipogenic differentiation factor PPARγ: increased
  expression levels of inflammatory factors (TGF-β, TNF-α, and IL-6): increased
Male C57BL/6 mice; topical DHT 0.2% w/v once a day, FIG. 13
  expression level of AR in cervicodorsal skins (immunofluorescence): significantly increased
Male C57BL/6 mice; topical DHT 0.2% w/v once a day, FIG. 14
  genes related to lipases, adipocyte differentiation, and lipoproteins in cervicodorsal skins: significantly increased
Male C57BL/6 mice; [6]
  skin expression level of β-catenin gene: decrease
  skin expression levels of TGF-β, DKK1, IL-6, and AR genes: increase

## CC(C)C[C@H](NC(=O)[C@@H](N)Cc1ccc(O)cc1)C(=O)NCC(=O)N[C@@H](C)C(=O)N[C@@H](CO)C(=O)N[C@H](C(=O)N1CCC[C@H]1C(=O)N[C@@H](CO)C(=O)N1CCC[C@H]1C(=O)N[C@@H](CC(=O)O)C(=O)N1CCC[C@H]1C(=O)N[C@@H](CC(C)C)C(=O)N[C@@H](CCC(=O)O)C(=O)N1CCC[C@H]1C(=O)N[C@H](C(=O)O)[C@@H](C)O)C(C)C [mO15, YLGASVPSPDPLEPT] (H-YLGASVPSPDPLEPT-OH; N-terminus and C-terminus assumed)
[2]
  fluorescence signals in brain tissues (brain entry): enters the brains
  localization and binding in brain, gonad (testis, epididymis) and adrenal gland tissues (fluorescence signals): specific localization and binding capabilities
[3]
  fluorescence signals in brain tissues (brain entry): enters the brains
  localization and binding in hypothalamus, ovary and uterus, and adrenal gland tissues (fluorescence signals): specific localization and binding capabilities

## Ocn49: full-length human osteocalcin (YLYQWLGAPVPYPDPLEPRREVCELNPDCDELADHIGFQEAYRRFYGPV)
GPR158 receptor
  binding to the GPR158 receptor: capable of binding to the GPR158 receptor
  internalization of the GPR158 receptor: induces internalization of the GPR158 receptor

## YLYQWLGAPVPYPDPLEPR (listed as Homo sapiens) [Ocn19, human osteocalcin-derived peptide (truncated human osteocalcin)]
GPR158 receptor
  binding to the GPR158 receptor: capable of binding to the GPR158 receptor
  internalization of the GPR158 receptor: induces internalization of the GPR158 receptor

## C[C@]12CCC(=O)C=C1CC[C@@H]1[C@@H]2[C@@H](O)C[C@@]2(C)[C@H]1CC[C@]2(O)C(=O)CO [cortisol]
[4]
  apoptosis of hair follicle cells (Caspase-3, BCL2, BAX): increased
  expression level of hair follicle regression marker MMP-9: increased
  expression levels of STIP1 and inflammatory factors (TGF-β1 and IL-6): increased
  expression levels of glucocorticoid receptor (GR), androgen receptor (AR), and 5α-reductase: significantly increased
  expression levels of hair growth marker GAS6 and hair follicle stem cell markers CD200 and CD133: decreased

## YLYQWLGAPVPYPDPLEPRREVCELNPDCDELADHIGFQEAYRRFYGPV (ligand, UniProt P02818 52-100, looked up, ends and bridges not checked; also: Cy5 label, site not given here, mature; also called human Ocn49) [full-length human osteocalcin Ocn49]
[5]
  binding result: binds

## YLYQWLGAPVPYPDPLEPR (not fully specified, also called human Ocn19) [truncated human osteocalcin Ocn19 (human osteocalcin-derived peptide)]
[5]
  binding result: binds
